Assay results taken from patent US12410155B2, “Salt form and crystal form of tetrahydrocyclohepta indazole compound” (Zhejiang Yangli Pharmaceutical Technology Co., Ltd., priority 2021, dated 2025).
Read-outs that look alike come from different tables or passages of the source.

Key:
[1] = system: human breast cancer MCF-7 cell subcutaneous xenograft tumor; assay type: in vivo; conditions: PO, QD; for T/C (%) / TGI (%) / Tumor volume (mm^3) (Day 21): Day 21; for Tumor volume (mm^3) (Day 21): listed as compound (I)
Method: (1) In Vivo Pharmacodynamic Study of Breast Cancer MCF-7 Cell Subcutaneous Xenograft Tumor BALB/c Nude Mouse Model
Objective: This study aimed to evaluate the in vivo efficacy of the crystal form C of the compound of formula (I) using a human breast cancer MCF-7 cell subcutaneous xenograft tumor model in nude mice.
Routine digestion with trypsin-EDTA (Gibco) was performed twice a week for passaging.
Cell inoculation: Estrogen pellets (0.36 mg/pellet; IRA) were subcutaneously inoculated into the left dorsum of each mouse. Three days later, 0.2 mL (1×10^7 cells) of MCF-7 cells (mixed with Matrigel; CORNING, volume ratio 1:1) were subcutaneously inoculated into the right dorsum of each mouse. When the average tumor volume reached 188 mm^3, the mice were grouped and the administration of compounds began.
An appropriate amount of the compound of formula (I) was weighed and prepared into 0.1, 0.3, 1, and 3 mg/mL solutions. […] Fulvestrant was used as the commercially available injection Faslodex.
The antitumor efficacy of the compounds was evaluated using Tumor Growth Inhibition (TGI, %) and relative tumor proliferation rate (T/C, %).
The Q value of combined medication index was calculated using the Jin formula. The criteria for judgment were as follows: a Q value of 0.85 to 1.15 indicated […] (+); a Q value>1.15 to 2.0 indicated enhancement (++); a Q value<0.85 to 0.55 indicated antagonism (−); and a Q value<0.55 indicated significant antagonism (−−). The formula was Q=Ea+b/(Ea+Eb−Ea×Eb), where Ea+b was the tumor inhibition rate of the combined medication group, and Ea and Eb were the tumor inhibition rates of the single medication groups, respectively.
Inter-group comparisons were analyzed using one-way ANOVA. […] A p value<0.05 was considered to indicate a significant difference.

[2] = target: T1, Estrogen receptor α (ERα) (Homo sapiens, UniProt P03372); assay: ERα binding assay (radioactive ligand binding)
T1 construct: host or cells: insect Sf9 cells
T1 sequence (P03372 1-595): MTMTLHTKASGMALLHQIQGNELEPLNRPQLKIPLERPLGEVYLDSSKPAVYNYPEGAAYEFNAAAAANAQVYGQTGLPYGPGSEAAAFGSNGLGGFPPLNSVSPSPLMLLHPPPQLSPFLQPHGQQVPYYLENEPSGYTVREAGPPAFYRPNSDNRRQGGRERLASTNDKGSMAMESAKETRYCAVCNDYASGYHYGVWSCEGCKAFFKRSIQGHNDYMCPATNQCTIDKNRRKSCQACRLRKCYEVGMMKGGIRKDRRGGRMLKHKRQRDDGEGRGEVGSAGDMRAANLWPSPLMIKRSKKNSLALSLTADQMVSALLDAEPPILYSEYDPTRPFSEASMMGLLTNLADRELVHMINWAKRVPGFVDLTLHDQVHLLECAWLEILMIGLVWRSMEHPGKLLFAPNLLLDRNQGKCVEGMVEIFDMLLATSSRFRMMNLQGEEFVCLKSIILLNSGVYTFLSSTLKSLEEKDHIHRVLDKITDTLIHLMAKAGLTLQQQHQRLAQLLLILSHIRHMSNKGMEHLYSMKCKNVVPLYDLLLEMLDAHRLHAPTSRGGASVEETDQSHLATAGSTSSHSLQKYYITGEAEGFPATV
Method: (1) ERα Binding Assay: Assessment of the Activity of the Compound of Formula (I) Via Radioactive Ligand Binding Assay
The method employed in this study was adopted from scientific literature (Obourn, J. D. et al., Biochemistry, 1993, 32, 6229-6236).
The IC50 values were obtained using MathIQ™ software (ID Business Solutions Ltd., UK) employing a nonlinear, least-squares regression method. The presented inhibition constant (Ki) was calculated using the Cheng and Prusoff equation (Cheng, Y., Prusoff, W. H., Biochem. Pharmacol. 22:3099-3108, 1973) based on the experimentally determined IC50 of the test compound, the concentration of the radioactive ligand used in the assay, and the historical value of the ligand's KD (determined experimentally by Eurofins Panlabs, Inc.). As shown, the Hill coefficient (nH), which defines the slope of the competitive binding curve, was calculated using MathIQ™.

Structure (SMILES): FCCCN1CC[C@H](Nc2cnc(C3=C(CC(F)(F)F)CCCc4c3ccc3[nH]nc(F)c43)cn2)C1 [Compound of formula (I)]
- T/C (%) ([1]; 1 mg/kg): 27.2%
- TGI (%) ([1]; 1 mg/kg): 85.3%
- Tumor volume (mm^3) (Day 21) ([1]; 1 mg/kg): 340 mm^3
- T/C (%) ([1]; 3 mg/kg): 14.8%
- TGI (%) ([1]; 3 mg/kg): 100.9%
- Tumor volume (mm^3) (Day 21) ([1]; 3 mg/kg): 179 mm^3
- ORR % ([1]; 10 mg/kg): 25%
- T/C (%) ([1]; 10 mg/kg): 11.3%
- TGI (%) ([1]; 10 mg/kg): 104.6%
- Tumor volume (mm^3) (Day 21) ([1]; 10 mg/kg): 140 mm^3
- ORR % ([1]; 30 mg/kg): 25%
- T/C (%) ([1]; 30 mg/kg): 9.7%
- TGI (%) ([1]; 30 mg/kg): 106.5%
- Tumor volume (mm^3) (Day 21) ([1]; 30 mg/kg): 121 mm^3
- nH (Hill coefficient) [2]: 1.22
- IC50 ([2]; 0.5 nM [3H] estradiol): 0.36 nM
- Ki ([2]; Cheng and Prusoff equation): 0.1 nM
- inhibition at 12.8 pM ([2]; concentration 12.8 pM, read-out: Inhibition rate (%)): -4%
- inhibition at 64 pM ([2]; concentration 0.064 nM, read-out: Inhibition rate (%)): 9%
- inhibition at 0.00032 µM ([2]; concentration 0.32 nM, read-out: Inhibition rate (%)): 48%
- inhibition at 0.0016 µM ([2]; concentration 1.6 nM, read-out: Inhibition rate (%)): 84%
- inhibition at 0.008 µM ([2]; concentration 8 nM, read-out: Inhibition rate (%)): 97%
- inhibition at 0.04 µM ([2]; concentration 0.04 μM, read-out: Inhibition rate (%)): 98%
- inhibition at 0.2 µM ([2]; concentration 0.2 μM, read-out: Inhibition rate (%)): 97%
- inhibition at 1 µM ([2]; concentration 1 μM, read-out: Inhibition rate (%)): 97%
